In publication doi:10.1101/2020.08.28.272054v2 (biorxiv, 2021):

What was measured:
Experiment in all cases: ATPase activity, photometric phosphate release, Sf9 membranes
Format in all cases: biochemical
αCβ3 = αCβ3 (Oncopeltus fasciatus, UniProt A0A8S4MUF7)
αCβ1 = αCβ1 (Oncopeltus fasciatus, UniProt A0A8S4MUF7)
αCβ2 = αCβ2 (Oncopeltus fasciatus, UniProt A0A8S4MUF7)
αCβ2, sequence (A0A8S4MUF7 1-1007): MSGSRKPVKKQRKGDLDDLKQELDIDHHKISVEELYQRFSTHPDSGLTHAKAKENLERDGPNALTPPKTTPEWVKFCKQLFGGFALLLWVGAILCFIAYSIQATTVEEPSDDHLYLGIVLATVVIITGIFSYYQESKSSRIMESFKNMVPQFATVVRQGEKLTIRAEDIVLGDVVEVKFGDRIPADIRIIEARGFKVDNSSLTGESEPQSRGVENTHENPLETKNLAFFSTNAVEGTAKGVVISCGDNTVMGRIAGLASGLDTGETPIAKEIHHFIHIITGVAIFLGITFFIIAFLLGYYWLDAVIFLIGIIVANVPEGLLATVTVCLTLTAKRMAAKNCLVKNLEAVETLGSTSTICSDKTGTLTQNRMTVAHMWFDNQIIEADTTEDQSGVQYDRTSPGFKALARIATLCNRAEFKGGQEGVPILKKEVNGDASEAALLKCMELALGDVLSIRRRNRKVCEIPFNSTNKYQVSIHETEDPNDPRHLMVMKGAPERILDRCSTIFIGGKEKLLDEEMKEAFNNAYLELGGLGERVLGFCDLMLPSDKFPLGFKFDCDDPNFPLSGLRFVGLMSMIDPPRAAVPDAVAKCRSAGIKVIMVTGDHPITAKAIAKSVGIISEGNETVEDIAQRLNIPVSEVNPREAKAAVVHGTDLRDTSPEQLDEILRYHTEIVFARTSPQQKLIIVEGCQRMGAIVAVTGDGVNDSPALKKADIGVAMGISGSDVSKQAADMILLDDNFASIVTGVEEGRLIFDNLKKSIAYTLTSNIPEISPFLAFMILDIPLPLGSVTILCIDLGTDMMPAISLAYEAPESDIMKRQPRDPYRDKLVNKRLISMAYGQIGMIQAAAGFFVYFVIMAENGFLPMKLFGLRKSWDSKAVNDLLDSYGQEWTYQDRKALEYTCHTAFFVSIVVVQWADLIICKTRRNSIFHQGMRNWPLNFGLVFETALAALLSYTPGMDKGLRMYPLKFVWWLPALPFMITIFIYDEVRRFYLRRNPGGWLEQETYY
αCβ2, sequence (A0A8S4MTQ8 1-322 partner): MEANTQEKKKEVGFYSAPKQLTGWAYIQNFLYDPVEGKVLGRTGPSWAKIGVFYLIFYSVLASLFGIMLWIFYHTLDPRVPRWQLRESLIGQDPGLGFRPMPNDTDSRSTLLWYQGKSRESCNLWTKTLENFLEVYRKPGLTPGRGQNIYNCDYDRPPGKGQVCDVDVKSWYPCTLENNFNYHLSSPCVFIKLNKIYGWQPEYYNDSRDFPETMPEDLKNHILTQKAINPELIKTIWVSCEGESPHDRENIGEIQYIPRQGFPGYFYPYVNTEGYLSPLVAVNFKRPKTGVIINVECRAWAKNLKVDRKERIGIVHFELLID

αCβ3, sequence (A0A8S4MUF7 1-1007): as the sequence (A0A8S4MUF7 1-1007) above
αCβ3, sequence (A0A8S4MV14 1-314 partner): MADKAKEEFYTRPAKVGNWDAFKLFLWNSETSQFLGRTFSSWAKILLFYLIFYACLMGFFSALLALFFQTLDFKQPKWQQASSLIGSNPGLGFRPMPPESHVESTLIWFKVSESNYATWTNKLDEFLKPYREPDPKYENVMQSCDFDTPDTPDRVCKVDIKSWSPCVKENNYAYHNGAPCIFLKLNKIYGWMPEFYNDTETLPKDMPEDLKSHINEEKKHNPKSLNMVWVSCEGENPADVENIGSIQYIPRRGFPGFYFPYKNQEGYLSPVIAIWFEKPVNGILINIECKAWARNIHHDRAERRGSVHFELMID
αCβ1, sequence (A0A8S4MUF7 1-1007): as the sequence (A0A8S4MUF7 1-1007) above
αCβ1, sequence (A0A8S4MTC7 1-330 partner): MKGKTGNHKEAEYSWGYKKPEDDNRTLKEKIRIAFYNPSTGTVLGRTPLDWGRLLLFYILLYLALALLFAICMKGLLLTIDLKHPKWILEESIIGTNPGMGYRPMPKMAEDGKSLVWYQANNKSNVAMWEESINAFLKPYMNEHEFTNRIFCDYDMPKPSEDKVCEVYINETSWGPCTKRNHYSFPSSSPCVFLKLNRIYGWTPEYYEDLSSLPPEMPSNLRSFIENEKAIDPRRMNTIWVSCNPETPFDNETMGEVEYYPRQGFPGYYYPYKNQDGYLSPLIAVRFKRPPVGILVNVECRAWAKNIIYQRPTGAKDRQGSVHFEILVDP

Question: What does the source list for `C[C@@H]1O[C@@H](O[C@H]2C[C@@H](O)[C@]3(CO)[C@H]4[C@H](O)C[C@]5(C)[C@@H](C6=CC(=O)OC6)CC[C@]5(O)[C@@H]4CC[C@]3(O)C2)[C@H](O)[C@H](O)[C@H]1O` [ouabain]?
Answer: IC50 (αCβ3): 758 µM; IC50 (αCβ1): 427 µM; IC50 (αCβ2): 737 µM
